Consider three compounds from paper PMC7491124, “Studies on sugar transporter CRT1 reveal new characteristics that are critical for cellulase induction in Trichoderma reesei” (Biotechnology for Biofuels, 2020).

Common to all, as to type: cell-based
Experiment [1] has as its target T1, CRT1-RUT-C30 (Trichoderma reesei, UniProt G0RGH7).
T1 construct: gene TRIREDRAFT_3405; full-length RUT-C30 version with longer N-terminus; codon-optimized synthetic gene, PGK1 promoter, centromeric plasmid in S. cerevisiae co-expressing N. crassa GH1-1
The experiment in a line: radiolabelled sugar uptake in yeast. As to conditions: labelled compound; zero-trans uptake, 100 mM potassium phosphate pH 6.5, 28 °C.

The target in experiment [2] is T1, CRT1-RUT-C30. The experiment in a line: inhibition of labelled cellobiose uptake in yeast. The conditions noted are these: 5 mM labelled cellobiose, 25 mM inhibitor; pH 6.5, 28 °C.
For experiment [3], the target named is T2, CDT-1 (Neurospora crassa, UniProt Q7SCU1).
T2 construct: full-length; PGK1 promoter, centromeric plasmid in S. cerevisiae co-expressing N. crassa GH1-1
T2 sequence (Q7SCU1 1-579): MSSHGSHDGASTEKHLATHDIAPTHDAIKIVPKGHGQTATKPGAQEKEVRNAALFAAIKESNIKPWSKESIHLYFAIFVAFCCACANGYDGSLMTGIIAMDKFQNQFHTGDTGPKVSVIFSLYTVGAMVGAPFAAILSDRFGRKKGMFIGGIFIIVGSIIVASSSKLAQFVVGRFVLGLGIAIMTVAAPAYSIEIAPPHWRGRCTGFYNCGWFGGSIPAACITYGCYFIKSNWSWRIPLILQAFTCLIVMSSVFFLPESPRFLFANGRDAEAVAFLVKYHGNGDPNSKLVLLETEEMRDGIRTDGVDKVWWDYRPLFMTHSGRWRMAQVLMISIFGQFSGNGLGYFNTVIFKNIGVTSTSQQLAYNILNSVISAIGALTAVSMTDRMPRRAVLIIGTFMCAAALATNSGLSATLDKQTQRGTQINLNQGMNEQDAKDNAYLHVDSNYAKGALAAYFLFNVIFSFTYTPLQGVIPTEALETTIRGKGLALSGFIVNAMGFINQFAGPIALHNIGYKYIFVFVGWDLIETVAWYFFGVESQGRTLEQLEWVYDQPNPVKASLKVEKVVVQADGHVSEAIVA
Kind of experiment: inhibition of labelled cellobiose uptake in yeast. The conditions noted are these: 5 mM labelled cellobiose, 25 mM inhibitor; pH 6.5, 28 °C.

For experiment [4], the target named is T3, CDT-2 (Neurospora crassa, UniProt Q7SD12).
T3 construct: full-length; PGK1 promoter, centromeric plasmid in S. cerevisiae co-expressing N. crassa GH1-1
T3 sequence (Q7SD12 1-525): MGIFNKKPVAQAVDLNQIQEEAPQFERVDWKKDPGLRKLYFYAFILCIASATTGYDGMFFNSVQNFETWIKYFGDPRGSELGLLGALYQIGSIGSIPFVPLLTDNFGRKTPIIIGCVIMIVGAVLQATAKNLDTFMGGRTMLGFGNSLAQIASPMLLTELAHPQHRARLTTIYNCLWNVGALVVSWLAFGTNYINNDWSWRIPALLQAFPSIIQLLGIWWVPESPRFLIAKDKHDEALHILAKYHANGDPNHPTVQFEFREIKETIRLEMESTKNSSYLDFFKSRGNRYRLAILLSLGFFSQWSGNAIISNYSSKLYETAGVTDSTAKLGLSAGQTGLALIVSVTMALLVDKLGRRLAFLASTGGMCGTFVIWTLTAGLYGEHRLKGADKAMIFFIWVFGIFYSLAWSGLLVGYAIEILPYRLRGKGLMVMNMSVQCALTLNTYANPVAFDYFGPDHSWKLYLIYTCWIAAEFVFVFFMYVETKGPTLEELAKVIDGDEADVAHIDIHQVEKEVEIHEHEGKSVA
The experiment in a line: radiolabelled lactose uptake in yeast, […] min. The conditions noted are these: labelled compound; 5 mM lactose, pH 6.5, 28 °C.

T1 sequence (G0RGH7 entry or part of it): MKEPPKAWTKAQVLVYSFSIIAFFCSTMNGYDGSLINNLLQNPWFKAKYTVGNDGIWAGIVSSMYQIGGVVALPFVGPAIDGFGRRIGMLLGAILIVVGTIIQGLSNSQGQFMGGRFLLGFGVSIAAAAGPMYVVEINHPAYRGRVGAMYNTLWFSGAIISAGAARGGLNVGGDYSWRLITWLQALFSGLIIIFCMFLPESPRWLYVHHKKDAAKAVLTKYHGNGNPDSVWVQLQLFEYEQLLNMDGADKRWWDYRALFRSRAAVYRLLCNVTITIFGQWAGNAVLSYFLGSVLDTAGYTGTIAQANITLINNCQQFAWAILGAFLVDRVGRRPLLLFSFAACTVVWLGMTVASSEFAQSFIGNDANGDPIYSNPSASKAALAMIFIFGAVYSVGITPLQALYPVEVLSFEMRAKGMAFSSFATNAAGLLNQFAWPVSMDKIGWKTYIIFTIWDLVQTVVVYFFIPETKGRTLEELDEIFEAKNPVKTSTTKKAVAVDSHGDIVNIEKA

With `OC[C@H]1O[C@@H](O[C@H]2[C@H](O)[C@@H](O)C(O)O[C@@H]2CO)[C@H](O)[C@@H](O)[C@@H]1O` (some centres unmarked) [cellobiose], in experiment [1], the Km (usually the concentration of substrate that gives half-maximal velocity) came to 3.1 ± 0.7 µM.
On to `OC[C@H]1O[C@@H](O[C@H]2[C@H](O)[C@@H](O)[C@H](O[C@H]3[C@H](O)[C@@H](O)C(O)O[C@@H]3CO)O[C@@H]2CO)[C@H](O)[C@@H](O)[C@@H]1O` (some centres unmarked) [cellotriose], for which the “% inhibition at 25 mM” value was “it was inhibited by cellobiose and to some extent by lactose and cellotriose” in experiment [2]; “it was inhibited by cellobiose and to some extent by lactose and cellotriose” in experiment [3].
For the compound `OC[C@H]1O[C@@H](O[C@H]2[C@H](O)[C@@H](O)C(O)O[C@@H]2CO)[C@H](O)[C@@H](O)[C@H]1O` (some centres unmarked) [lactose], the Michaelis-Menten constant (Km) in experiment [1] was 62.9 ± 27.4 µM. In experiment [4], the “radiolabelled lactose uptake in yeast, 20 min” value is on record as “higher lactose uptake was seen for the strains which expressed CDT-1, CDT-2 or CRT1-RUT-C30”.
